Patent publication US6583299B1, “α-amino-β-sulfonyl hydroxamic acid compounds” (priority 1999, dated 2003)
“And” between values parts separate entries of the source, which are not always exact repeats. Identical values can stand only once. Like-named read-outs stand apart in the source and are kept apart here.

Tests used:
Assay in all cases: In vitro metalloprotease inhibition, fluorogenic MCA peptide substrate
Format in all cases: biochemical
MMP-1 = target: T1, MMP-1 (Homo sapiens, UniProt P03956); settings: recombinant human enzyme, APMA-activated, room temperature, pH 7.5
T1 construct: host or cells: transfected HT-1080 cells
T1 sequence (P03956 100-469): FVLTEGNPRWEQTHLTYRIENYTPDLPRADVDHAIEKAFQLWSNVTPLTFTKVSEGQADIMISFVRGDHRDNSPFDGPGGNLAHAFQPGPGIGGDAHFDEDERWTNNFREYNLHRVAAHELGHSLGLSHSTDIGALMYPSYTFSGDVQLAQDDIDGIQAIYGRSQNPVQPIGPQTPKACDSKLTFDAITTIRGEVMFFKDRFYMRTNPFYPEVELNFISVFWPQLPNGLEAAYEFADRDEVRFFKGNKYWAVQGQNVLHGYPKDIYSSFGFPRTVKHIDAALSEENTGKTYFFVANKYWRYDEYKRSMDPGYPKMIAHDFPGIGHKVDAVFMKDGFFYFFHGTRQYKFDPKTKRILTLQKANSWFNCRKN
Protocol: (§1) Briefly, 4-aminophenylmercuric acetate (APMA) or trypsin-activated MMPs were incubated with various concentrations of the inhibitor compound at room temperature for 5 minutes.
(§2) The expressed enzyme was purified first over a heparin agarose column and then over a chelating zinc chloride column. The proenzyme was activated by APMA for use in the assay.
MMP-1 expressed in transfected HT-1080 cells was provided by Dr. Harold Welgus of Washington University, St. Louis, Mo. The enzyme was also activated using APMA and was then purified over a hydroxamic acid column.
(§3) The enzyme substrate is a methoxycoumarin-containing polypeptide having the following sequence:
(§4) MCA-ProLeuGlyLeuDpaAlaArgNH2, wherein MCA is methoxycoumarin and Dpa is 3-(2,4-dinitrophenyl)-L-2,3-diaminopropionyl alanine.
(§5) The assayed inhibitor compound in DMSO/buffer solution was compared to an equal amount of DMSO/buffer with no inhibitor as control using Microfluor™ White Plates (Dynatech). The inhibitor or control solution was maintained in the plate for 10 minutes and the substrate was added to provide a final concentration of 4 μM.
(§6) Inhibition was measured as a reduction in fluorescent intensity as a function of inhibitor concentration, using a Perkin Elmer L550 plate reader. The IC50 values were calculated from those values.

MMP-13 = target: T2, MMP-13 (Homo sapiens, UniProt P45452); settings: APMA-activated, room temperature, pH 7.5
T2 construct: made in house; host or cells: baculovirus / insect cells
Protocol: as §1, §2, §3, §4, §5, §6

MMP-2 = target: T3, MMP-2 (Homo sapiens, UniProt P08253); settings: room temperature, pH 7.5
T3 sequence (P08253 110-660): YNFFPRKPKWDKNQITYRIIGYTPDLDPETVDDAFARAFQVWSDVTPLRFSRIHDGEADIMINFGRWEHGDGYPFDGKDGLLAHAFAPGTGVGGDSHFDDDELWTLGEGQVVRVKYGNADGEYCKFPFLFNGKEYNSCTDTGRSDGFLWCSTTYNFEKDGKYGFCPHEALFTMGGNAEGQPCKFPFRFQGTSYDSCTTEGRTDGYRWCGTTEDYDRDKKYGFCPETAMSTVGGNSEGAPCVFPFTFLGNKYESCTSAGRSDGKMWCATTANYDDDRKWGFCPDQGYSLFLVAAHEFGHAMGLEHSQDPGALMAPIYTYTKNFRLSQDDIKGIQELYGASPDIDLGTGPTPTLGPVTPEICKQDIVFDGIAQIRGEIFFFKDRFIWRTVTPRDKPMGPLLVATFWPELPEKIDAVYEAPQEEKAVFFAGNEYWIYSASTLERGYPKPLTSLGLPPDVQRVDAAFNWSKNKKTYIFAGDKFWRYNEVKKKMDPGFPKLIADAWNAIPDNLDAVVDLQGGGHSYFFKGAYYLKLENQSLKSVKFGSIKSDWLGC
Protocol: Briefly, 4-aminophenylmercuric acetate (APMA) or trypsin-activated MMPs were incubated with various concentrations of the inhibitor compound at room temperature for 5 minutes. […] The assayed inhibitor compound in DMSO/buffer solution was compared to an equal amount of DMSO/buffer with no inhibitor as control using MicrofluorTM White Plates (Dynatech). The inhibitor or control solution was maintained in the plate for 10 minutes and the substrate was added to provide a final concentration of 4 μM. […] Inhibition was measured as a reduction in fluorescent intensity as a function of inhibitor concentration, using a Perkin Elmer [MUT] plate reader. The IC50 values were calculated from those values.

[1] = recombinant human enzyme, read-out: MMP-13 IC50
[2] = MMP-13 IC50, recombinant human enzyme

Row | SMILES | IC50 (MMP-1) | IC50 (MMP-13; [1]) | IC50 (MMP-2) | IC50 (MMP-13; [2])
1 | C#CCNC(C)(CS(=O)(=O)c1ccc(Oc2ccccc2)cc1)C(=O)NO (stereo not shown) [Example 69] | 700 nM | 0.6 nM |  | 
2 | CC(CS(=O)(=O)c1ccc(Oc2ccccc2)cc1)(NCc1ccccc1)C(=O)NO (stereo not shown) [Example 56] |  | 0.3 nM |  | 
3 | CC(CS(=O)(=O)c1ccc(Oc2ccccc2)cc1)(NCCc1ccccc1)C(=O)NO (stereo not shown) [Example 67] | 2400 nM | 2.4 nM |  | 
4 | CC(CS(=O)(=O)c1ccc(Oc2ccccc2)cc1)(NCc1ccc2ccccc2c1)C(=O)NO (stereo not shown) [Example 68] |  | 1.4 nM |  | 
5 | NC(CS(=O)(=O)c1ccc(Oc2ccccc2)cc1)(C(=O)NO)c1ccccc1 (stereo not shown) [Example 70] | 130 nM | 0.4 nM |  | 
6 | O=C(CNC(=O)OCc1ccccc1)NC(CS(=O)(=O)c1ccc(Sc2ccccc2)cc1)C(=O)NO (stereo not shown) [Example 16c, Phenylmethyl-[2-[[2-(hydroxyamino)-2-oxo-1-[[[4-(phenylthio)-phenyl]sulfonyl]methyl]ethyl]amino]-2-oxoethyl]carbamate] | > 10000 nM | 0.8 nM |  | 
7 | O=C(NC(CS(=O)(=O)c1ccc(Sc2ccccc2)cc1)C(=O)NO)c1ccccc1-c1ccccc1 (stereo not shown) [Example 35] | 3000 nM | 0.2 nM |  | 
8 | CC(N)(CS(=O)(=O)c1ccc(Sc2ccccc2)cc1)C(=O)NO (stereo not shown) [Example 58] | 4400 nM | 2.4 nM |  | 
9 | CC(=O)NC(CS(=O)(=O)c1ccc(Sc2ccccc2)cc1)C(=O)NO (stereo not shown) [Example 15b, 2-(Acetylamino)-N-hydroxy-3-[[4-(phenylthio)phenyl]sulfonyl]propanamide] | > 10000 nM | 5.9 nM | 2.2 nM | 
10 | CC(N)(CS(=O)(=O)c1ccc(NC(=O)c2ccccc2)cc1)C(=O)NO (stereo not shown) [Example 61] | > 10000 nM | 60 nM | 1.1 nM | 
11 | COc1cccc(OC)c1C(=O)N[C@@H](CS(=O)(=O)c1ccc(Oc2ccccc2)cc1)C(=O)NO [Example 37] | 350 nM | 0.4 nM | 0.25 nM | 
12 | CN(Cc1ccccc1)[C@H](CS(=O)(=O)c1ccc(Oc2ccccc2)cc1)C(=O)NO [Example 48] | 475 nM | 0.2 nM | < 0.1 nM | 
13 | CN(C(=O)Cc1ccncc1)[C@H](CS(=O)(=O)c1ccc(Oc2ccccc2)cc1)C(=O)NO [Example 47] | 258 nM | 45.3 nM | 0.6 nM | 
14 | CNC(CS(=O)(=O)c1ccc(NC(=O)c2ccccc2)cc1)C(=O)NO (stereo not shown) [Example 64] | 7000 nM | 8.1 nM | 0.4 nM | 
15 | CC(=O)N1CCC(C(=O)NC(CS(=O)(=O)c2ccc(Oc3ccccc3)cc2)C(=O)NO)CC1 (stereo not shown) [Example 59] | 580 nM | 0.8 nM | 0.4 nM | 
16 | CC(=O)N(C)[C@@H](CS(=O)(=O)c1ccc(Oc2ccccc2)cc1)C(=O)NO [Example 43] | 90 nM | 0.2 nM | 0.2 nM | 
17 | COc1ccc(S(=O)(=O)CC(NS(C)(=O)=O)C(=O)NO)cc1 (stereo not shown) [Example 21] | 300 nM | 15 nM |  | 
18 | COc1ccc(S(=O)(=O)CC(NC(C)=O)C(=O)NO)cc1 (stereo not shown) [Example 1, N-Hydroxy-3-[(4-methoxyphenyl)sulfonyl]-2-[(methylcarbonyl)amino]propanamide] | 300 nM | 15 nM |  | 
19 | O=C(NC(CS(=O)(=O)c1ccc(Sc2ccccc2)cc1)C(=O)NO)OCc1ccccc1 (stereo not shown) [Example 14c, Phenylmethyl-[2-(hydroxyamino)-2-oxo-1-[[[4-(phenylthio)-phenyl]sulfonyl]methyl]ethyl]carbamate] | > 10000 nM | 3.7 nM |  | 
20 | CC(=O)N[C@@H](CS(=O)(=O)c1ccc(Sc2ccccc2)cc1)C(=O)NO [Example 30] |  | 2.9 nM | 0.5 nM | 
21 | O=C(N[C@@H](CS(=O)(=O)c1ccc(Oc2ccccc2)cc1)C(=O)NO)c1ccncc1 [Example 44] | 900 nM | 0.8 nM | 0.3 nM | 
22 | N[C@H](CNO)CS(=O)(=O)c1ccc(Oc2ccccc2)cc1 [Example 60] | 440 nM | 0.4 nM | 0.3 nM | 
23 | CC(C)(C)OC(=O)N[C@@H](CS(=O)(=O)c1ccc(Oc2ccccc2)cc1)C(=O)NO [Example 33] | 500 nM | 0.3 nM | 0.2 nM | 
24 | CN(C)C(C)(CS(=O)(=O)c1ccc(Oc2ccccc2)cc1)C(=O)NO (stereo not shown) [Example 52] |  | 24 nM |  | 
25 | COc1ccc(S(=O)(=O)CC(NC(=O)NC(C)(C)C)C(=O)NO)cc1 (stereo not shown) [Example 2, 2-[[[(1,1-Dimethylethyl)amino]carbonyl]amino]-N-hydroxy-3-[(4-methoxyphenyl)sulfonyl]propanamide] | 1500 nM | 15 nM |  | 

Row | SMILES | IC50 (MMP-1) | IC50 (MMP-13; [1]) | IC50 (MMP-2) | IC50 (MMP-13; [2])
26 | CN[C@@H](CS(=O)(=O)c1ccc(Oc2ccccc2)cc1)C(=O)NO [Example 41] | 440 nM and 670 nM | 0.4 nM and 1 nM | 0.3 nM and 0.5 nM | 
27 | CCNC(C)(CS(=O)(=O)c1ccc(Oc2ccccc2)cc1)C(=O)NO (stereo not shown) [Example 55] | 1600 nM | 1.6 nM |  | 
28 | CCN(CC)c1ccc(C(=O)N[C@@H](CS(=O)(=O)c2ccc(Oc3ccccc3)cc2)C(=O)NO)cc1 [Example 53] | 8100 nM | 2.1 nM | 0.3 nM | 
29 | CC(C)(C)NC(=O)NC(CS(=O)(=O)c1ccc(Sc2ccccc2)cc1)C(=O)NO (stereo not shown) [Example 45] |  | 5 nM |  | 
30 | CC(=O)N[C@@H](CS(=O)(=O)c1ccc(Oc2ccccc2)cc1)C(=O)NO [Example 9g, N^2-Acetyl-N^1-hydroxyl-3-[(4-phenoxyphenyl)sulphonyl]alaninamide] | 770 nM | 1.1 nM |  | 
31 | O=C(N[C@@H](CS(=O)(=O)c1ccc(Sc2ccccc2)cc1)C(=O)NO)OCc1ccccc1 [Example 32] | 8000 nM | 0.4 nM |  | 
32 | O=C(NC(CS(=O)(=O)c1ccc(Sc2ccccc2)cc1)C(=O)NO)c1ccncc1 (stereo not shown) [Example 28] | > 10000 nM | 13 nM | 5.5 nM | 
33 | CC(C)(C)C(=O)NC(CS(=O)(=O)c1ccc(Oc2ccccc2)cc1)C(=O)NO (stereo not shown) [Example 10d] | 1600 nM | 2.7 nM |  | 
34 | O=C(NC(CS(=O)(=O)c1ccc(Sc2ccccc2)cc1)C(=O)NO)c1cccnc1 (stereo not shown) [Example 29] | > 10000 nM | 7 nM |  | 
35 | O=C(NC(CS(=O)(=O)c1ccc(Sc2ccccc2)cc1)C(=O)NO)c1ccco1 (stereo not shown) [Example 27] | > 10000 nM | 14 nM |  | 
36 | CC(C)(C)NC(=O)NC(CS(=O)(=O)c1ccc(Sc2ccccc2)cc1)C(=O)NO (stereo not shown) [Example 20b] | > 10000 nM | 4 nM |  | 
37 | O=C(NC(CS(=O)(=O)c1ccc(Sc2ccccc2)cc1)C(=O)NO)c1ccccc1 (stereo not shown) [Example 34] | > 10000 nM | 5 nM |  | 
38 | CC(CS(=O)(=O)c1ccc(Oc2ccccc2)cc1)(NCc1ccc2c(c1)OCO2)C(=O)NO (stereo not shown) [Example 66] |  | 1.1 nM |  | 
39 | NC(CS(=O)(=O)c1ccc(Sc2ccccc2)cc1)C(=O)NO (stereo not shown) [Example 18a] | > 10000 nM | 24 nM |  | 
40 | CC(=O)NC(C)(CS(=O)(=O)c1ccc(Sc2ccccc2)cc1)C(=O)NO (stereo not shown) [Example 57] |  | 580 nM |  | 
41 | C[C@H](NC(=O)OCc1ccccc1)C(=O)NC(CS(=O)(=O)c1ccc(Sc2ccccc2)cc1)C(=O)NO (stereo partly shown) [Example 19a] | > 10000 nM | 0.8 nM |  | 
42 | CCCCC(=O)NC(CS(=O)(=O)c1ccc(Sc2ccccc2)cc1)C(=O)NO (stereo not shown) [Example 11g, N-[1-[(Hydroxyamino)carbonyl]-2-[[4-(phenylthio)phenyl]sulfonyl]ethyl]pentanamide] |  | 6 nM |  | 
43 | CC(N)(CS(=O)(=O)c1ccc(Oc2ccccc2)cc1)C(=O)NO (stereo not shown) [Example 38] | 170 nM |  |  | 0.5 nM
44 | CC(N)(CS(=O)(=O)c1ccc(Oc2ccccc2)cc1)C(=O)NO (stereo not shown) [Example 39] | 114 nM and 225 nM |  |  | 0.3 nM and 1.1 nM
45 | Cc1ccc(S(=O)(=O)NC(CS(=O)(=O)c2ccc(Sc3ccccc3)cc2)C(=O)NO)cc1 (stereo not shown) [Example 17c] | 600 nM | 0.4 nM |  | 
46 | COc1ccc(S(=O)(=O)CC(NC(=O)CNC(=O)OCc2ccccc2)C(=O)NO)cc1 (stereo not shown) [Example 6, Phenylmethyl-[2-[[2-(hydroxyamino)-2-oxo-1-[[[4-methoxyphenyl]sulfonyl]methyl]ethyl]amino]-2-oxoethyl]carbamate] | 40 nM | < 1 nM |  | 
47 | CC(CS(=O)(=O)c1ccc(Oc2ccccc2)cc1)(NC(=O)CN1CCCC1)C(=O)NO (stereo not shown) [Example 49] |  | 160 nM |  | 
48 | O=C(NC(CS(=O)(=O)c1ccc(Oc2ccccc2)cc1)(C(=O)NO)c1ccccc1)c1ccccc1 (stereo not shown) [Example 65] |  | 161 nM |  | 
49 | O=C(NC(CS(=O)(=O)c1ccc(Sc2ccccc2)cc1)C(=O)NO)c1cccc2ccccc12 (stereo not shown) [Example 36] | > 10000 nM | 2.5 nM |  | 
